{"source": "paper PMC10176470", "about": "“Engaging a Non-catalytic Cysteine Residue Drives Potent and Selective Inhibition of Caspase-6” (Journal of the American Chemical Society, 2023)", "format_in_all_cases": "cell-based", "key": {"[1]": {"target": "proteins of HEK293T cells transiently overexpressing caspase-6 (Homo sapiens, UniProt Q16576)", "sequence (Q16576 whole entry)": "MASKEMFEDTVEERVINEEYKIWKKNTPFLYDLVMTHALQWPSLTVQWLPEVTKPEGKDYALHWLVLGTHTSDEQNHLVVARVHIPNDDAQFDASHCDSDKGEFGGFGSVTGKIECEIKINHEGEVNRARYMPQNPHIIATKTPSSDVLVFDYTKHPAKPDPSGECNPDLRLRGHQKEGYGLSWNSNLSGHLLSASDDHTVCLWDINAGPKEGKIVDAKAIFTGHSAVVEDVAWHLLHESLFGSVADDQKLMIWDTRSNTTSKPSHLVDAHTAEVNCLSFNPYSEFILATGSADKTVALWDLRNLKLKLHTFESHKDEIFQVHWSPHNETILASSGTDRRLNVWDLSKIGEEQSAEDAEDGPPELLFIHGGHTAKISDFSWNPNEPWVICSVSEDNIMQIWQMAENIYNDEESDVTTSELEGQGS", "settings": "exp_ref Probe; protein RBBP7 (Q16576); analysis C6"}, "[2]": {"target": "proteins of HEK293T cells transiently overexpressing caspase-6 (Homo sapiens, UniProt Q99714)", "sequence (Q99714 whole entry)": "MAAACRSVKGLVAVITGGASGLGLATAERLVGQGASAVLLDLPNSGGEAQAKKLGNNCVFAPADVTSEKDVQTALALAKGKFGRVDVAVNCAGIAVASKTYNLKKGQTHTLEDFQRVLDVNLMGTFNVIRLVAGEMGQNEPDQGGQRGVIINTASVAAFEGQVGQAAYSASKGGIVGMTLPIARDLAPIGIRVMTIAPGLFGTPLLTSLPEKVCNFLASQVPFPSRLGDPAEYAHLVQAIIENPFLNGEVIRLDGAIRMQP", "settings": "exp_ref Probe; protein HSD17B10 (Q99714); analysis C6"}, "[3]": {"target": "proteins of HEK293T cells transiently overexpressing caspase-6 (Homo sapiens, UniProt Q9Y230)", "sequence (Q9Y230 whole entry)": "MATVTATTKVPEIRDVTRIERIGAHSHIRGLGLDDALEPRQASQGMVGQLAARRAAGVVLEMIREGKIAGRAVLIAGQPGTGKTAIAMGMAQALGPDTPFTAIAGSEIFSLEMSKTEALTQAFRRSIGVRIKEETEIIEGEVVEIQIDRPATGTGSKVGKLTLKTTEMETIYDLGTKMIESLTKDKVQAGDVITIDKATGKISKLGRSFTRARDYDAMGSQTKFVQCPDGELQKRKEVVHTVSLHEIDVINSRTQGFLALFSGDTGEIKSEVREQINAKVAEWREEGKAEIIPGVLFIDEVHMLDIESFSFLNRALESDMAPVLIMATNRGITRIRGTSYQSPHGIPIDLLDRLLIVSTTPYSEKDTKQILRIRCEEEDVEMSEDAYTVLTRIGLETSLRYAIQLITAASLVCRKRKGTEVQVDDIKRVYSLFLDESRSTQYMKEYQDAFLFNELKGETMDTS", "settings": "protein RUVBL2 (Q9Y230); exp_ref Probe; analysis C6"}, "[4]": {"target": "proteins of HEK293T cells transiently overexpressing caspase-6 (Homo sapiens, UniProt O75874)", "sequence (O75874 whole entry)": "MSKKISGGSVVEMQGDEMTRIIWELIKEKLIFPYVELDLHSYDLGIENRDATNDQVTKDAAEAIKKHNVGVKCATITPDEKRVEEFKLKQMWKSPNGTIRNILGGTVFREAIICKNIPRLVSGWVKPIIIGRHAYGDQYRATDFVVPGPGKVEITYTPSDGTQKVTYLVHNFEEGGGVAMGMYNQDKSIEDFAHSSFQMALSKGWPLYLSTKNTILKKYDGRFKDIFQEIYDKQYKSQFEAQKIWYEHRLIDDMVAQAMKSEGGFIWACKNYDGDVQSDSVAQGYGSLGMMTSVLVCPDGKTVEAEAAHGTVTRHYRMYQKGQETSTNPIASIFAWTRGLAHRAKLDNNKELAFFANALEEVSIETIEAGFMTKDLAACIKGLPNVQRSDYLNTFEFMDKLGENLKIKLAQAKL", "settings": "exp_ref Probe; protein IDH1 (O75874); analysis C6"}, "[5]": {"target": "proteins of HEK293T cells transiently overexpressing caspase-6 (Homo sapiens, UniProt Q14974)", "sequence (Q14974 whole entry)": "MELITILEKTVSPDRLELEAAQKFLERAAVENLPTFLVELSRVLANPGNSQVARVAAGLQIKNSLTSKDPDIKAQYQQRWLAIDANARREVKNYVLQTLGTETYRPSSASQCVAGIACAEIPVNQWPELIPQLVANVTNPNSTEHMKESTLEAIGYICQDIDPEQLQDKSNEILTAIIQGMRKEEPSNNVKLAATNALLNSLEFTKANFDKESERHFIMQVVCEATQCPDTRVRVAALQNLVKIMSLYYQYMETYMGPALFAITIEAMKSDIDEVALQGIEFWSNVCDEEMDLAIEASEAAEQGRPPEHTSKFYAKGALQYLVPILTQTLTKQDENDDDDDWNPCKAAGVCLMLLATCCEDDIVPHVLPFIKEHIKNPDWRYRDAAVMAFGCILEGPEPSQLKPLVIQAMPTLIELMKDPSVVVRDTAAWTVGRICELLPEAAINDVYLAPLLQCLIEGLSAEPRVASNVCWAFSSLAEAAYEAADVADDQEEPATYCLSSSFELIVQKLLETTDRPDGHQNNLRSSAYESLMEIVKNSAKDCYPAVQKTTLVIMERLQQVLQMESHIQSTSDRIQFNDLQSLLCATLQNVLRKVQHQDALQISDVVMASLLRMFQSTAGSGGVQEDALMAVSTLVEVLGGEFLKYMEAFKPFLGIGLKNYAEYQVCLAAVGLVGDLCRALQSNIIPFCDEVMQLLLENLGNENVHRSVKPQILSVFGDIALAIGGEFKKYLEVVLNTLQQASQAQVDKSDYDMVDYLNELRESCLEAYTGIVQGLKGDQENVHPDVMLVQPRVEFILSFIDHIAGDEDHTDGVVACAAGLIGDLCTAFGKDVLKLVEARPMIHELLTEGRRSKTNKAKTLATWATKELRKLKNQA", "settings": "protein KPNB1 (Q14974)"}, "[6]": {"target": "proteins of HEK293T cells transiently overexpressing caspase-6 (Homo sapiens, UniProt O75643)", "settings": "exp_ref Probe; protein SNRNP200 (O75643); analysis C6"}, "[7]": {"target": "proteins of HEK293T cells transiently overexpressing caspase-6 (Homo sapiens, UniProt P05141)", "sequence (P05141 whole entry)": "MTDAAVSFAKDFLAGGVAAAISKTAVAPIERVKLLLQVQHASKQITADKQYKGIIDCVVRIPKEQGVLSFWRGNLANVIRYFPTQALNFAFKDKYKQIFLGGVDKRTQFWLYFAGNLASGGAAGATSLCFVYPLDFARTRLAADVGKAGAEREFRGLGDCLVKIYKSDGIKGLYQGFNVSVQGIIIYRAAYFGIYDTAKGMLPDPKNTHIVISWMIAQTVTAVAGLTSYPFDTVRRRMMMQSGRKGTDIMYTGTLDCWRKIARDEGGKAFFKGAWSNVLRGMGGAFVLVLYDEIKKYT", "settings": "exp_ref Probe; protein SLC25A5 (P05141); analysis C6"}, "[8]": {"target": "proteins of HEK293T cells transiently overexpressing caspase-6 (Homo sapiens, UniProt P12268)", "settings": "exp_ref Probe; protein IMPDH2 (P12268); analysis C6"}, "[9]": {"target": "T1, proteins of HEK293T cells transiently overexpressing caspase-6 (Homo sapiens, UniProt P30048)", "T1 sequence (P30048 62-256)": "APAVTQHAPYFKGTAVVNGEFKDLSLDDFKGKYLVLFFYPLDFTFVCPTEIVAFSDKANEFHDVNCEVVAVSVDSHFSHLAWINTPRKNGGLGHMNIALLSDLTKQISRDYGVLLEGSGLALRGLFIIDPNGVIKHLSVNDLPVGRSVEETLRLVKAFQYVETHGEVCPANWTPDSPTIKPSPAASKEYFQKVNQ"}, "[10]": {"target": "proteins of HEK293T cells transiently overexpressing caspase-6 (Homo sapiens, UniProt P23528)", "sequence (P23528 whole entry)": "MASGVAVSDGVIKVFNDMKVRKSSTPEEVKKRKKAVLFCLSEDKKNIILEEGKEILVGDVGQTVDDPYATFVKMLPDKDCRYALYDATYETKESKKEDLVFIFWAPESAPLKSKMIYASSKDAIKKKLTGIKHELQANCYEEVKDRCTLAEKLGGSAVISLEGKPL", "settings": "protein CFL1 (P23528)"}, "[11]": {"target": "proteins of HEK293T cells transiently overexpressing caspase-6 (Homo sapiens, UniProt P62424)", "settings": "exp_ref Probe; protein RPL7A (P62424); analysis C6"}, "[12]": {"target": "proteins of HEK293T cells transiently overexpressing caspase-6 (Homo sapiens, UniProt P04264)", "sequence (P04264 whole entry)": "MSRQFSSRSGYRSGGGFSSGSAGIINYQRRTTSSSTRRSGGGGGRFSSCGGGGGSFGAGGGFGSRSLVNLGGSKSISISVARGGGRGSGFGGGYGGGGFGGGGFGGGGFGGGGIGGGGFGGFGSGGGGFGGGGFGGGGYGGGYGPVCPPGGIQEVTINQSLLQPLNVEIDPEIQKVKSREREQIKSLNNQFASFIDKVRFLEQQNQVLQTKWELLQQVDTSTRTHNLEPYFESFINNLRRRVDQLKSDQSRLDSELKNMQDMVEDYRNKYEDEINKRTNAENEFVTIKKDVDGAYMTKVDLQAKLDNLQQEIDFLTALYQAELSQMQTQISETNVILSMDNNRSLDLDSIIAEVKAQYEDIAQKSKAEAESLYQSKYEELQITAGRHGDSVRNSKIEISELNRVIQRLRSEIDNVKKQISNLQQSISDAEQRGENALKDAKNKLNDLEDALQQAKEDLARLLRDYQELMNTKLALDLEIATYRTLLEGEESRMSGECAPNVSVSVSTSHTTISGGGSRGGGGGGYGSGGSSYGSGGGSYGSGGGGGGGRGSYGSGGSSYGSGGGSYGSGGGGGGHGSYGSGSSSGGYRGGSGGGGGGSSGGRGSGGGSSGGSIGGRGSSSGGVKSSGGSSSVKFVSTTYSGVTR", "settings": "Probe; protein KRT1 P04264"}, "[13]": {"target": "proteins of HEK293T cells transiently overexpressing caspase-6 (Homo sapiens, UniProt P61247)", "settings": "protein RPS3A (P61247)"}, "[14]": {"target": "T2, proteins of HEK293T cells transiently overexpressing caspase-6 (Homo sapiens, UniProt P14324)", "T2 sequence (P14324 1-419)": "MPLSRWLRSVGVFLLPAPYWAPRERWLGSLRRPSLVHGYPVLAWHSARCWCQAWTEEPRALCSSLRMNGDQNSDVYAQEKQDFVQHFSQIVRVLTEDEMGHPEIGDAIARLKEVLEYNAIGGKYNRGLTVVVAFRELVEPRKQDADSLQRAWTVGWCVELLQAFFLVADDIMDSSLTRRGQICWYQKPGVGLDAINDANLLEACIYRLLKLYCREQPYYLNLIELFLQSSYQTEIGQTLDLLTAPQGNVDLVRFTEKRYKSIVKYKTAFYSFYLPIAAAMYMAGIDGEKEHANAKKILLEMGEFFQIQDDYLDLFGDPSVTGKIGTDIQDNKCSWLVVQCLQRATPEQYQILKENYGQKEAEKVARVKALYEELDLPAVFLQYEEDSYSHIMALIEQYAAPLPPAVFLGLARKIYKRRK", "settings": "Probe; protein FDPS P14324"}, "[15]": {"target": "proteins of HEK293T cells transiently overexpressing caspase-6 (Homo sapiens, UniProt P55884)", "sequence (P55884 whole entry)": "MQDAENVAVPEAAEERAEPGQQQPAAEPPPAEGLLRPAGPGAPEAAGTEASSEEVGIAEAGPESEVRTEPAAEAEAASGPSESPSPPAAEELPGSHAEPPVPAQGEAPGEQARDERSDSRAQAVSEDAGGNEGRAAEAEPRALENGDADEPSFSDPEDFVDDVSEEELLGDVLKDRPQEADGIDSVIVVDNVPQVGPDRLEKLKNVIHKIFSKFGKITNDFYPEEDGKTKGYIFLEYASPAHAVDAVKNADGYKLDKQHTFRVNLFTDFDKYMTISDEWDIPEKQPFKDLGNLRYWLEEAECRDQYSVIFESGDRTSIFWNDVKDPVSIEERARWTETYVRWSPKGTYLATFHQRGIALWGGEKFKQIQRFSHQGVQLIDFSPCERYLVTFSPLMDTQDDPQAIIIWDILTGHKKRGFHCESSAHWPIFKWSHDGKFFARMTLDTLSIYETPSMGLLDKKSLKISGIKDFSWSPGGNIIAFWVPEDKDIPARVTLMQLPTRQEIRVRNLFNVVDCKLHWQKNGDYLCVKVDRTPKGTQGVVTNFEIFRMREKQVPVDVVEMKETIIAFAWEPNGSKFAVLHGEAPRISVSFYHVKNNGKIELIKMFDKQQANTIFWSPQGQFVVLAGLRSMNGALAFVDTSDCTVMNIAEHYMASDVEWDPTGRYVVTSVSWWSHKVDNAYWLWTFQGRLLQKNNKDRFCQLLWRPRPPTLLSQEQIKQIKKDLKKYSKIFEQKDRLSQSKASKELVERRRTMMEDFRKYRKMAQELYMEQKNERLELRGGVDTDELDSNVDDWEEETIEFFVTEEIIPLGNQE", "settings": "exp_ref Probe; protein EIF3B (P55884); analysis C6"}, "[16]": {"target": "proteins of HEK293T cells transiently overexpressing caspase-6 (Homo sapiens, UniProt P61221)", "settings": "exp_ref Probe; protein ABCE1 (P61221); analysis C6"}, "[17]": {"target": "proteins of HEK293T cells transiently overexpressing caspase-6 (Homo sapiens, UniProt Q9H3N1)", "sequence (Q9H3N1 27-280)": "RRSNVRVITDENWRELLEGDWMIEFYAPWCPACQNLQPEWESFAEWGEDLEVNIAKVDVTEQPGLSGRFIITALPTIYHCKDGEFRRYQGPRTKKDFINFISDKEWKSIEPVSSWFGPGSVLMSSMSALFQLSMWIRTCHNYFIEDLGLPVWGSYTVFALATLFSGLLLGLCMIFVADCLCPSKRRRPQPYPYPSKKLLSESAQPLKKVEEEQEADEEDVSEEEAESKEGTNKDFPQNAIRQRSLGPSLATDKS", "settings": "protein TMX1 (Q9H3N1); exp_ref Probe; analysis C6"}, "[18]": {"tested_on": "proteins of HEK293T cells transiently overexpressing caspase-6", "settings": "exp_ref Probe; protein CBSL (P0DN79); analysis C6"}, "[19]": {"target": "proteins of HEK293T cells transiently overexpressing caspase-6 (Homo sapiens, UniProt P62263)", "settings": "exp_ref Probe; protein RPS14 (P62263); analysis C6"}, "[20]": {"target": "proteins of HEK293T cells transiently overexpressing caspase-6 (Homo sapiens, UniProt P62280)", "settings": "protein RPS11 (P62280), analysis C6"}, "[21]": {"target": "proteins of HEK293T cells transiently overexpressing caspase-6 (Homo sapiens, UniProt Q06830)", "sequence (Q06830 whole entry)": "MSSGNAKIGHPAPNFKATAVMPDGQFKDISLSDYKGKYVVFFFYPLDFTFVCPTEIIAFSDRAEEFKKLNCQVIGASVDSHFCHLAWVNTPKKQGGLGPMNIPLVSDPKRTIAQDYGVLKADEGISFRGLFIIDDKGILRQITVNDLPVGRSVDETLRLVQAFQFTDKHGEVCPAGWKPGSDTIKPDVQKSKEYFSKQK", "settings": "exp_ref Probe; protein PRDX1 (Q06830); analysis C6"}}}
{"smiles": "C#CCOc1ccc([C@@H]2C[C@@H](C(=O)Nc3ccc(OC(F)(F)F)cc3)CN(S(=O)(=O)C=C)C2)cc1", "note": "(relative stereo) [13-t]", "values": [{"measurement": "enrich.exp.med", "setting": "[1]", "result": 0.6141}, {"measurement": "enrich.exp.med", "setting": "[2]", "result": 0.1684}, {"measurement": "enrich.exp.med", "setting": "[3]", "result": 1.2493}, {"measurement": "enrich.exp.med", "setting": "[4]", "result": -0.2162}, {"measurement": "enrich.exp.med", "setting": "[5]; exp_ref Probe, analysis C6", "result": 0.7787}, {"measurement": "enrich.exp.med.lin", "setting": "[5]", "result": 1.716}, {"measurement": "enrich.exp.med.log2", "setting": "[5]", "result": 0.7787}, {"measurement": "enrich.exp.med", "setting": "[6]", "result": -0.0557}, {"measurement": "enrich.exp.med", "setting": "[7]", "result": 0.9373}, {"measurement": "enrich.exp.med", "setting": "[8]", "result": 0.7134}, {"measurement": "enrich.exp.med", "setting": "[9]; Probe, protein PRDX3 P30048", "result": -1.058}, {"measurement": "enrich.exp.med.lin", "setting": "[9]; protein PRDX3 (P30048)", "result": 0.4804}, {"measurement": "enrich.exp.med.log2", "setting": "[9]; protein PRDX3 (P30048)", "result": -1.058}, {"measurement": "enrich.exp.med", "setting": "[10]; exp_ref Probe, analysis C6", "result": 0.4078}, {"measurement": "enrich.exp.med.lin", "setting": "[10]", "result": 1.327}, {"measurement": "enrich.exp.med.log2", "setting": "[10]", "result": 0.4078}, {"measurement": "enrich.exp.med", "setting": "[11]", "result": 0.8961}, {"measurement": "enrich.exp.med", "setting": "[12]", "result": -8.014}, {"measurement": "enrich.exp.med", "setting": "[13]; exp_ref Probe, analysis C6", "result": 1.085}, {"measurement": "enrich.exp.med.lin", "setting": "[13]", "result": 2.121}, {"measurement": "enrich.exp.med.log2", "setting": "[13]", "result": 1.085}, {"measurement": "enrich.exp.med", "setting": "[14]", "result": -1.278}, {"measurement": "enrich.exp.med", "setting": "[15]", "result": 0.2575}, {"measurement": "enrich.exp.med", "setting": "[16]", "result": -0.002133}, {"measurement": "enrich.exp.med", "setting": "[17]", "result": 2.103}, {"measurement": "enrich.exp.med", "setting": "[18]", "result": -0.1387}, {"measurement": "enrich.exp.med", "setting": "[19]", "result": -0.03314}, {"measurement": "enrich.exp.med.lin", "setting": "[20]; Expt Probe", "result": 5.0581}, {"measurement": "enrich.exp.med.log2", "setting": "[20]; Expt Probe", "result": 2.3386}, {"measurement": "enrich.exp.med", "setting": "[20]; exp_ref Probe", "result": 2.3386}, {"measurement": "enrich.exp.med", "setting": "[21]", "result": -0.1545}]}
